# Measurements from PMC11005723, “Development of Complementary Photo‐arginine/lysine to Promote Discovery of Arg/Lys hPTMs Interactomes” (Advanced Science, 2024).
# Non-standard residues stand in square brackets, D forms with d. No end group written: not given here. *: point of attachment. Biotin = O=C1N[C@H]2[C@H](CS[C@H]2CCCCC(=O)*)N1; R(dz) = photo-arginine
# Tested on: HEK293T nuclear lysates
# Assay: SILAC‐based pull‐down proteomics H4K5me1/H4K5 (probes 6/5)
# Type: binding, human
# Settings: for C6 log (H4K5me/H4K5): run C6; for B6 log2 (H4K5me/H4K5): run B6
substance,measurement,setting,value
probe 6: H4K5me peptide probe with photo‐arginine R(dz) and K(biotin) (SG[R(dz)]GK(Me)GGKGLGKGGK(Biotin)),C6 log (H4K5me/H4K5),protein P46109 CRKL,0.1336
same,B6 log2 (H4K5me/H4K5),protein P49959 MRE11A,0.207
same,C6 log (H4K5me/H4K5),protein P49959 MRE11A,0.09642
same,B6 log2 (H4K5me/H4K5),protein P54886 ALDH18A1,0.2574
same,C6 log (H4K5me/H4K5),protein P54886 ALDH18A1,0.1226
same,B6 log2 (H4K5me/H4K5),protein P60842 EIF4A1,0.1721
same,C6 log (H4K5me/H4K5),protein P60842 EIF4A1,0.03464
same,B6 log2 (H4K5me/H4K5),protein P62140 PPP1CB,0.1941
same,C6 log (H4K5me/H4K5),protein P62140 PPP1CB,0.1375
same,B6 log2 (H4K5me/H4K5),protein P78527 PRKDC,0.1659
same,C6 log (H4K5me/H4K5),protein P78527 PRKDC,0.03578
same,B6 log2 (H4K5me/H4K5),protein P82979 SARNP,0.2593
same,C6 log (H4K5me/H4K5),protein P82979 SARNP,0.2358
same,B6 log2 (H4K5me/H4K5),protein P83916 CBX1,1.115
same,C6 log (H4K5me/H4K5),protein P83916 CBX1,1.115
same,B6 log2 (H4K5me/H4K5),protein Q5JRI1 FUSIP1,0.2091
same,C6 log (H4K5me/H4K5),protein Q5JRI1 FUSIP1,0.05687
same,B6 log2 (H4K5me/H4K5),protein Q5QPR4 CDC2L2,0.1546
same,C6 log (H4K5me/H4K5),protein Q5QPR4 CDC2L2,0.218
same,B6 log2 (H4K5me/H4K5),protein Q5SY16 NOL9,0.2457
same,C6 log (H4K5me/H4K5),protein Q5SY16 NOL9,0.6439
same,B6 log2 (H4K5me/H4K5),protein Q5T760 SFRS11,0.2194
same,C6 log (H4K5me/H4K5),protein Q5T760 SFRS11,0.159
same,B6 log2 (H4K5me/H4K5),protein Q5UIP0 RIF1,0.2471
same,C6 log (H4K5me/H4K5),protein Q5UIP0 RIF1,0.213
same,B6 log2 (H4K5me/H4K5),protein Q6PD62 CTR9,0.2151
same,C6 log (H4K5me/H4K5),protein Q6PD62 CTR9,0.2109
same,B6 log2 (H4K5me/H4K5),protein Q6PJT7 ZC3H14,0.2381
same,C6 log (H4K5me/H4K5),protein Q6PJT7 ZC3H14,0.2485
same,B6 log2 (H4K5me/H4K5),protein Q7Z6E9 RBBP6,0.1468
same,C6 log (H4K5me/H4K5),protein Q7Z6E9 RBBP6,0.358
same,B6 log2 (H4K5me/H4K5),protein Q8IX15 HOMEZ,0.2323
same,C6 log (H4K5me/H4K5),protein Q8IX15 HOMEZ,0.1198
same,B6 log2 (H4K5me/H4K5),protein Q8N3X1 FNBP4,0.1827
same,C6 log (H4K5me/H4K5),protein Q8N3X1 FNBP4,0.2005
same,B6 log2 (H4K5me/H4K5),protein Q8N5C6 SRBD1,0.1982
same,C6 log (H4K5me/H4K5),protein Q8N5C6 SRBD1,0.09557
same,B6 log2 (H4K5me/H4K5),protein Q8N163 KIAA1967,0.1537
same,C6 log (H4K5me/H4K5),protein Q8N163 KIAA1967,0.2348
same,B6 log2 (H4K5me/H4K5),protein Q8TDD1 DDX54,0.1648
same,C6 log (H4K5me/H4K5),protein Q8TDD1 DDX54,0.2394
same,B6 log2 (H4K5me/H4K5),protein Q9BVJ6 UTP14A,0.973
same,C6 log (H4K5me/H4K5),protein Q9BVJ6 UTP14A,0.973
same,B6 log2 (H4K5me/H4K5),protein Q9H2P0 ADNP,0.2412
same,C6 log (H4K5me/H4K5),protein Q9H2P0 ADNP,-0.7035
same,B6 log2 (H4K5me/H4K5),protein Q9H7L9 SUDS3,1.175
same,C6 log (H4K5me/H4K5),protein Q9H7L9 SUDS3,1.175
same,B6 log2 (H4K5me/H4K5),protein Q9H9A6 LRRC40,0.1942
same,C6 log (H4K5me/H4K5),protein Q9H9A6 LRRC40,0.05299
same,B6 log2 (H4K5me/H4K5),protein Q9UBD5 ORC3,0.1586
same,C6 log (H4K5me/H4K5),protein Q9UBD5 ORC3,-0.1103
same,B6 log2 (H4K5me/H4K5),protein Q9UBW7 ZMYM2,0.2577
same,C6 log (H4K5me/H4K5),protein Q9UBW7 ZMYM2,0.2945
same,B6 log2 (H4K5me/H4K5),protein Q9UHB6 LIMA1,0.1593
same,C6 log (H4K5me/H4K5),protein Q9UHB6 LIMA1,0.1812
same,B6 log2 (H4K5me/H4K5),protein Q9UQ80 PA2G4,0.1452
same,C6 log (H4K5me/H4K5),protein Q9UQ80 PA2G4,-0.04803
same,B6 log2 (H4K5me/H4K5),protein Q9UQR0 SCML2,0.7435
same,C6 log (H4K5me/H4K5),protein Q9UQR0 SCML2,0.7435
same,B6 log2 (H4K5me/H4K5),protein Q9Y2L1 DIS3,0.1845
same,C6 log (H4K5me/H4K5),protein Q9Y2L1 DIS3,0.1312
same,B6 log2 (H4K5me/H4K5),protein Q9Y6C9 MTCH2,0.1565
same,C6 log (H4K5me/H4K5),protein Q9Y6C9 MTCH2,-0.06142
same,B6 log2 (H4K5me/H4K5),protein Q86VP6 CAND1,0.1606
same,C6 log (H4K5me/H4K5),protein Q86VP6 CAND1,0.2263
same,B6 log2 (H4K5me/H4K5),protein Q00839 HNRNPU,0.2071
same,C6 log (H4K5me/H4K5),protein Q00839 HNRNPU,0.1339
same,B6 log2 (H4K5me/H4K5),protein Q01082 SPTBN1,0.2576
same,C6 log (H4K5me/H4K5),protein Q01082 SPTBN1,0.166
same,B6 log2 (H4K5me/H4K5),protein Q06265 EXOSC9,0.1802
same,C6 log (H4K5me/H4K5),protein Q06265 EXOSC9,0.08146
same,B6 log2 (H4K5me/H4K5),protein Q06330 RBPJ,0.1919
same,C6 log (H4K5me/H4K5),protein Q06330 RBPJ,-0.04363
same,B6 log2 (H4K5me/H4K5),protein Q09161 NCBP1,0.2194
same,C6 log (H4K5me/H4K5),protein Q09161 NCBP1,0.2078
same,B6 log2 (H4K5me/H4K5),protein Q12874 SF3A3,0.1922
same,C6 log (H4K5me/H4K5),protein Q12874 SF3A3,0.1113
same,B6 log2 (H4K5me/H4K5),protein Q12888 TP53BP1,0.2132
same,C6 log (H4K5me/H4K5),protein Q12888 TP53BP1,0.1756
same,B6 log2 (H4K5me/H4K5),protein Q13185 CBX3,1.132
same,C6 log (H4K5me/H4K5),protein Q13185 CBX3,1.132
same,B6 log2 (H4K5me/H4K5),protein Q13363 CTBP1,0.1923
same,C6 log (H4K5me/H4K5),protein Q13363 CTBP1,-0.1428
same,B6 log2 (H4K5me/H4K5),protein Q13416 ORC2,0.2451
same,C6 log (H4K5me/H4K5),protein Q13416 ORC2,0.438
same,B6 log2 (H4K5me/H4K5),protein Q14137 BOP1,0.2019
same,C6 log (H4K5me/H4K5),protein Q14137 BOP1,-0.001199
same,B6 log2 (H4K5me/H4K5),protein Q14498 RBM39,0.2408
same,C6 log (H4K5me/H4K5),protein Q14498 RBM39,0.2735
same,B6 log2 (H4K5me/H4K5),protein Q14683 SMC1A,0.1556
same,C6 log (H4K5me/H4K5),protein Q14683 SMC1A,0.1782
same,B6 log2 (H4K5me/H4K5),protein Q15459 SF3A1,0.2515
same,C6 log (H4K5me/H4K5),protein Q15459 SF3A1,0.3427
same,B6 log2 (H4K5me/H4K5),protein Q16555 DPYSL2,0.7641
same,C6 log (H4K5me/H4K5),protein Q16555 DPYSL2,0.7641
same,B6 log2 (H4K5me/H4K5),protein Q16658 FSCN1,0.2138
same,C6 log (H4K5me/H4K5),protein Q16658 FSCN1,0.727
same,B6 log2 (H4K5me/H4K5),protein Q92688 ANP32B,0.1648
same,C6 log (H4K5me/H4K5),protein Q92688 ANP32B,0.135
same,B6 log2 (H4K5me/H4K5),protein Q99613 EIF3C,0.2459
same,C6 log (H4K5me/H4K5),protein Q99613 EIF3C,0.04711
